The values below come from patent publication US11066369B2, “N-(pyridin-2-yl)pyridine-sulfonamide derivatives and their use in the treatment of disease” (Novartis AG, priority 2016, dated 2021).

For one assay, the target named is T1, delF508-CFTR (Homo sapiens, UniProt P13569, DEL508-508).
T1 construct: functional activity of the CFTR channel (Chloride ion transport) in patient derived primary human bronchial epithelial cells; host or cells: patient-derived primary human bronchial epithelial cells (delF508-CFTR)
T1 sequence (P13569 with tags, fused parts or gaps DEL508-508): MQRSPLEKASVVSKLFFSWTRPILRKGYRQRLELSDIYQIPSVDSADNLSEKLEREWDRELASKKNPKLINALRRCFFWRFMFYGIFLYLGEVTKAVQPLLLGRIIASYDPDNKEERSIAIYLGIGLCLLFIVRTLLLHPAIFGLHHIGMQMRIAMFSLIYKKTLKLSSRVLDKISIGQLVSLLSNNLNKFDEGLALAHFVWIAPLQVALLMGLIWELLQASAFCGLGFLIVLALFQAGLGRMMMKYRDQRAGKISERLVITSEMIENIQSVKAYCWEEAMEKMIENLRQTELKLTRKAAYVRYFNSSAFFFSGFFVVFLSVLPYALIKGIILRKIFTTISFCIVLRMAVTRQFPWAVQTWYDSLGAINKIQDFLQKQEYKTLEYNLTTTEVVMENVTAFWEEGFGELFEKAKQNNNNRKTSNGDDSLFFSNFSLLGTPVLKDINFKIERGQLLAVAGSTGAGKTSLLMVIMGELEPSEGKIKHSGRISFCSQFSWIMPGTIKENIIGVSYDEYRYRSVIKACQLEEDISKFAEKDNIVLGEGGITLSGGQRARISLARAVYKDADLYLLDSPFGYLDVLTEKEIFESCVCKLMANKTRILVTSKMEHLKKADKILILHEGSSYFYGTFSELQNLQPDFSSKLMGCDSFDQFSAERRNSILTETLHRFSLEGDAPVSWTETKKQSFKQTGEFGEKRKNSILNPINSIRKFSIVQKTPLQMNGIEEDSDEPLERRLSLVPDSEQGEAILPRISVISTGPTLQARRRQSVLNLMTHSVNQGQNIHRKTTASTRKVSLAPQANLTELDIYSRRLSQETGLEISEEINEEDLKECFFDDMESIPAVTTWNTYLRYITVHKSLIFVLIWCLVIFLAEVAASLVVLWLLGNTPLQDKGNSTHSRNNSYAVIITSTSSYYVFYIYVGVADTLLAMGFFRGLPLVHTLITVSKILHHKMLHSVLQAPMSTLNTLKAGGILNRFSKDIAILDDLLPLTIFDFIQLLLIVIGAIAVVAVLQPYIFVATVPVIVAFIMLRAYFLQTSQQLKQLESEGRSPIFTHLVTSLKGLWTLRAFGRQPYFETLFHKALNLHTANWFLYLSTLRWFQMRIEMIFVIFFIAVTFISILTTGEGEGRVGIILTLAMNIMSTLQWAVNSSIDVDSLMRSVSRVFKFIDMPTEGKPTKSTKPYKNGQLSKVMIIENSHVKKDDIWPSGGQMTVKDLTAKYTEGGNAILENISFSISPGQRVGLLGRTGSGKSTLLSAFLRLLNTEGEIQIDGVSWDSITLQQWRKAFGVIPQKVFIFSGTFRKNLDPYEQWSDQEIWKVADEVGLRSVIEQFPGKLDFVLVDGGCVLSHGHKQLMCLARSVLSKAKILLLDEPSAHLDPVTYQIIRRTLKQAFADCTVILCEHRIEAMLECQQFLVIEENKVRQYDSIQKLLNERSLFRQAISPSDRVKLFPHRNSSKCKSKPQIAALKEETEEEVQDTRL
Nature of the assay: Measurement of delF508-CFTR functional activity in primary human bronchial epithelial cells (HBECs) using Multi-Transepithelial Clamp Circuit (MTECC-24) assay. It is filed as cell-based. The conditions noted are these: primary CF HBECs; for MTECC24 CFHBEC- Amax %: test compound added 24h before assay plus potentiator, relative to reference combination (2 μM corrector + 0.5 μM potentiator); for EC50: test compound added 24h before assay, in the presence of potentiator, mean of at least two replicates, read-out: MTECC24 CFHBEC- EC50. The essentials: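 Compound tested as 10-point, 1-in-3 concentration response (0.1% or 0.2% DMSO), 24 h basolateral pre-incubation, then re-added to both sides. MTECC-24 measured Ieq in ALI-differentiated primary delF508 bronchial cells after amiloride, forskolin activation, potentiator and INH-172 block; data normalized to DMSO baseline, EC50 fitted.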

Assay [1] concerns the target T2, horseradish peroxidase (HRP) tagged delF508-CFTR (Homo sapiens, UniProt P13569, DEL508-508).
T2 construct: expressed in transfected cells
The experiment in a line: Measurement of delF508-CFTR-HRP surface expression in CFBE41o- cells.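 As to DelF508-CFTR-HRP Amax %: percent efficacy relative to reference corrector lumacaftor.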 The conditions noted are these: delF508-CFTR-HRP surface expression, CFBE41o- cells; for Emax: read-out: DelF508-CFTR-HRP Amax %; for EC50: read-out: DelF508-CFTR-HRP EC50. Type of assay: cell-based. The method in brief: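 Surface-trafficked delF508-CFTR detected via extracellular HRP tag, read as luminescence from a membrane-impermeant substrate in CFBE41o- cells. Cells pre-induced 48h with 500 ng/mL doxycycline, then exposed 24h at 37° C to a 10-point, 3-fold dilution series from 10 μM (DMSO ≤0.5%). Triplicate dose-responses fitted logistically for EC50 after per-plate normalization; fold change versus reference compound.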

The structures appear in SMILES notation.

T2 sequence (P13569 with tags, fused parts or gaps DEL508-508): as above

As to `CC1(O)CN(c2cccc(S(=O)(=O)Nc3ccc(Cl)c(-c4ccc(F)cc4Cl)n3)n2)C1` [Example 213, N-(5-chloro-6-(2-chloro-4-fluorophenyl)pyridin-2-yl)-6-(3-hydroxy-3-methylazetidin-1-yl)pyridine-2-sulfonamide], at delF508-CFTR, the “MTECC24 CFHBEC- Amax %” value was 78.0% and the concentration giving a half-maximal response (EC50) is 47.8 nM. Also, in assay [1], the Emax came out at 224% and the EC50 is 2490 nM.
For `O=S(=O)(Nc1ccc(Cl)c(-c2ccc(F)cc2Cl)n1)c1cccc(N2CC(O)C2)n1` [Example 214, N-(5-chloro-6-(2-chloro-4-fluorophenyl)pyridin-2-yl)-6-(3-hydroxyazetidin-1-yl)pyridine-2-sulfonamide] the same measures were 71.1%, 51.9 nM, 256% and 2030 nM.
For `Cc1c(F)cccc1-c1nc(NS(=O)(=O)c2cccc(N3CC(C)(O)C3)n2)ccc1C(F)(F)F` [Example 215, N-(6-(3-fluoro-2-methylphenyl)-5-(trifluoromethyl)pyridin-2-yl)-6-(3-hydroxy-3-methylazetidin-1-yl)pyridine-2-sulfonamide] the same measures were 66.4%, 4.7 nM, 303% and 2100 nM.
The corresponding values for `Cc1c(F)cccc1-c1nc(NS(=O)(=O)c2cccc(N3CC(O)C3)n2)ccc1C(F)(F)F` [Example 216, N-(6-(3-fluoro-2-methylphenyl)-5-(trifluoromethyl)pyridin-2-yl)-6-(3-hydroxyazetidin-1-yl)pyridine-2-sulfonamide] are 82.1%, 4.8 nM, 446% and 1710 nM.
`Cc1cc(F)ccc1-c1nc(NS(=O)(=O)c2cccc(N3CC(C)(O)C3)n2)ccc1C(F)(F)F` [Example 217, N-(6-(4-fluoro-2-methylphenyl)-5-(trifluoromethyl)pyridin-2-yl)-6-(3-hydroxy-3-methylazetidin-1-yl)pyridine-2-sulfonamide]: on delF508-CFTR, the “MTECC24 CFHBEC- Amax %” value is 66.3% and the EC50 stood at 38 nM. In assay [1], the Emax is 157% and the EC50 was found to be 308 nM.
The corresponding values for `Cc1cc(F)ccc1-c1nc(NS(=O)(=O)c2cccc(N3CC(O)C3)n2)ccc1C(F)(F)F` [Example 218, N-(6-(4-fluoro-2-methylphenyl)-5-(trifluoromethyl)pyridin-2-yl)-6-(3-hydroxyazetidin-1-yl)pyridine-2-sulfonamide] are 59.5%, 23 nM, 465% and 1750 nM.
The corresponding values for `Cc1ccc(F)cc1-c1nc(NS(=O)(=O)c2cccc(N3CC(C)(O)C3)n2)ccc1C(F)(F)F` [Example 219, N-(6-(5-fluoro-2-methylphenyl)-5-(trifluoromethyl)pyridin-2-yl)-6-(3-hydroxy-3-methylazetidin-1-yl)pyridine-2-sulfonamide] are 119.0%, 11.1 nM, 711% and 1600 nM.
For `Cc1ccc(F)cc1-c1nc(NS(=O)(=O)c2cccc(N3CC(O)C3)n2)ccc1C(F)(F)F` [Example 220, N-(6-(5-fluoro-2-methylphenyl)-5-(trifluoromethyl)pyridin-2-yl)-6-(3-hydroxyazetidin-1-yl)pyridine-2-sulfonamide] the same measures were 58.6%, 3.2 nM, 902% and 1610 nM.
For `CC1(O)CN(c2cccc(S(=O)(=O)Nc3ccc(C(F)(F)F)c(-c4ccccc4Cl)n3)n2)C1` [Example 221, N-(6-(2-chlorophenyl)-5-(trifluoromethyl)pyridin-2-yl)-6-(3-hydroxy-3-methylazetidin-1-yl)pyridine-2-sulfonamide], at delF508-CFTR, the “MTECC24 CFHBEC- Amax %” value stood at 63.5% and the 50% effective concentration (EC50) came out at 7 nM. In assay [1], the Emax was 552% and the EC50 was 1320 nM.
Take `O=S(=O)(Nc1ccc(C(F)(F)F)c(-c2ccccc2Cl)n1)c1cccc(N2CC(O)C2)n1` [Example 222, N-(6-(2-chlorophenyl)-5-(trifluoromethyl)pyridin-2-yl)-6-(3-hydroxyazetidin-1-yl)pyridine-2-sulfonamide]: on delF508-CFTR, the “MTECC24 CFHBEC- Amax %” value came to 61.1% and the EC50 was 10.6 nM. In assay [1], the Emax was found to be 427% and the half-maximal effective concentration (EC50) was 1710 nM.
For `Cc1ccc(C(F)(F)F)cc1-c1nc(NS(=O)(=O)c2cccc(N3CC(O)C3)n2)ccc1Cl` [Example 223, N-(5-chloro-6-(2-methyl-5-(trifluoromethyl)phenyl)pyridin-2-yl)-6-(3-hydroxyazetidin-1-yl)pyridine-2-sulfonamide] the same measures were 59.9%, 14.4 nM, 427% and 1920 nM.
For `O=S(=O)(Nc1ccc(C(F)(F)F)c(-c2ccccc2C(F)(F)F)n1)c1cccc(N2CC(O)C2)n1` [Example 224, 6-(3-hydroxyazetidin-1-yl)-N-(5-(trifluoromethyl)-6-(2-(trifluoromethyl)phenyl)pyridin-2-yl)pyridine-2-sulfonamide] the same measures were 63.9%, 4.9 nM, 499% and 1380 nM.
The corresponding values for `O=S(=O)(Nc1ccc(C(F)(F)F)c(-c2ccc(F)cc2Cl)n1)c1cccc(N2CC(O)C2)n1` [Example 225, N-(6-(2-chloro-4-fluorophenyl)-5-(trifluoromethyl)pyridin-2-yl)-6-(3-hydroxyazetidin-1-yl)pyridine-2-sulfonamide] are 87.7%, 17.6 nM, 361% and 2740 nM.
Take `COc1ccc(Cl)c(-c2nc(NS(=O)(=O)c3cccc(N4CC(O)C4)n3)ccc2C(F)(F)F)c1` [Example 226, N-(6-(2-chloro-5-methoxyphenyl)-5-(trifluoromethyl)pyridin-2-yl)-6-(3-hydroxyazetidin-1-yl)pyridine-2-sulfonamide]: on delF508-CFTR, the “MTECC24 CFHBEC- Amax %” value is on record as 83.5% and the EC50 worked out at 12.9 nM. In assay [1], the Emax was 721% and the EC50 worked out at 2400 nM.
For the compound `O=S(=O)(Nc1ccc(Cl)c(-c2ccccc2Cl)n1)c1cccc(N2CC(O)C2)n1` [Example 227, N-(5-chloro-6-(2-chlorophenyl)pyridin-2-yl)-6-(3-hydroxyazetidin-1-yl)pyridine-2-sulfonamide], on delF508-CFTR, the “MTECC24 CFHBEC- Amax %” value is 104.9% and the EC50 turned out to be 49.1 nM. Also, in assay [1], the Emax stood at 403% and the EC50 turned out to be 2670 nM.
For `COc1ccc(Cl)c(-c2nc(NS(=O)(=O)c3cccc(N4CC(O)C4)n3)ccc2Cl)c1` [Example 228, N-(5-chloro-6-(2-chloro-5-methoxyphenyl)pyridin-2-yl)-6-(3-hydroxyazetidin-1-yl)pyridine-2-sulfonamide] the same measures were 87.0%, 38.1 nM, 405% and 2990 nM.
For `O=S(=O)(Nc1ccc(Cl)c(-c2cccc(F)c2Cl)n1)c1cccc(N2CC(O)C2)n1` [Example 229, N-(5-chloro-6-(2-chloro-3-fluorophenyl)pyridin-2-yl)-6-(3-hydroxyazetidin-1-yl)pyridine-2-sulfonamide], on delF508-CFTR, the “MTECC24 CFHBEC- Amax %” value was found to be 69.0% and the EC50 was 53.3 nM. In addition, in assay [1], the Emax came to 341% and the EC50 turned out to be 4290 nM.
The corresponding values for `O=S(=O)(Nc1ccc(C(F)(F)F)c(-c2cccc(F)c2Cl)n1)c1cccc(N2CC(O)C2)n1` [Example 230, N-(6-(2-chloro-3-fluorophenyl)-5-(trifluoromethyl)pyridin-2-yl)-6-(3-hydroxyazetidin-1-yl)pyridine-2-sulfonamide] are 60.6%, 21.1 nM, 513% and 2940 nM.
Regarding `Cc1cccc(C)c1-c1nc(NS(=O)(=O)c2cccc(N3CC(O)C3)n2)ccc1Cl` [Example 231, N-(5-chloro-6-(2,6-dimethylphenyl)pyridin-2-yl)-6-(3-hydroxyazetidin-1-yl)pyridine-2-sulfonamide], at delF508-CFTR, the “MTECC24 CFHBEC- Amax %” value worked out at 71.8% and the EC50 stood at 20.6 nM. In addition, in assay [1], the Emax is 465% and the EC50 came out at 1160 nM.
The corresponding values for `Cc1c(F)cccc1-c1nc(NS(=O)(=O)c2cccc(N3CC(O)C3)n2)ccc1Cl` [Example 232, N-(5-chloro-6-(3-fluoro-2-methylphenyl)pyridin-2-yl)-6-(3-hydroxyazetidin-1-yl)pyridine-2-sulfonamide] are 72.3%, 31.9 nM, 349% and 1700 nM.

A word on the EC50: it is the concentration giving half of the maximal effect.
